Laboratory results: PMC4253011, “Positive allosteric modulation of the adenosine A2a receptor attenuates inflammation” (Journal of Inflammation (London, England), 2014)
One block for each compound: values may come before it.

How the values were obtained:
[1] = rapidly degraded in vivo by adenosine deaminase; no reference given; cited from earlier work
[2] = test system: murine model of sepsis; design: method as in PMID 18937852; conditions: within 4 h of LPS injection ref 26; cited from earlier work
[3] = target: rat A2aR (rA2aR) (Rattus norvegicus, UniProt P30543); assay: cAMP assay in PC-12 cells (endogenous rat A2aR); conditions: A2bR antagonist pre-incubated 15 min
[4] = test system: human monocytes; assay: PMA-stimulated TNF-α production by human monocytes; assay type: cell-based

rat A2aR (rA2aR), sequence (P30543 whole entry): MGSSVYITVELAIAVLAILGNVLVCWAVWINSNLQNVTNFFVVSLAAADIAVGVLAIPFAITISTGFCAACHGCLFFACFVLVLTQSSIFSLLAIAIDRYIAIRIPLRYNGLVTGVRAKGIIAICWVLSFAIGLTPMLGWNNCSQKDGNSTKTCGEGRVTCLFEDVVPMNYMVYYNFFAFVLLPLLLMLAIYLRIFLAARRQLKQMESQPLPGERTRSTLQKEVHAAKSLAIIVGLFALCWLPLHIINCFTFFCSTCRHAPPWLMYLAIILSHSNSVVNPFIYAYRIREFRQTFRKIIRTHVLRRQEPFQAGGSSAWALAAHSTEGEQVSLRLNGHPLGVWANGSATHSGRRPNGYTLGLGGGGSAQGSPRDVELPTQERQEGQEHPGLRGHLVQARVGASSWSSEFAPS

SMILES: Nc1ncnc2c1ncn2[C@@H]1O[C@H](CO)[C@@H](O)[C@H]1O [adenosine]
half-life in vivo [1]: less than 10 seconds

SMILES: COC(=O)N1CCC(CC#Cc2nc(N)c3ncn([C@@H]4O[C@H](C(=O)NC5CC5)[C@@H](O)[C@H]4O)c3n2)CC1 [ATL313]
circulating plasma levels of TNF-α, MIP-1α, MCP-1 [2]: decreases | plasma level of IL-10 [2]: increases

effect on adenosine- or adenosine plus AEA061-induced cAMP production [3]: failed to inhibit
SMILES: CCCn1c(=O)c2[nH]c(-c3ccc(OCC(=O)Nc4ccc(C#N)cc4)cc3)nc2n(CCC)c1=O [MRS 1754, N-(4-Cyanophenyl)-2-[4-(2,3,6,7-tetrahydro-2,6-dioxo-1,3-dipropyl-1H-purin-8-yl)phenoxy]-acetamide]

SMILES: Nc1nc(NCCc2ccc(O)cc2)nc2nc(-c3ccco3)nn12 [ZM 241385, 4-(2-[7-Amino-2-(2-furyl)[1,2,4]triazolo[2,3-a][1,3,5]triazin-5-ylamino]ethyl)phenol]
effect on AEA061-mediated inhibition of PMA-stimulated TNF-α production ([4]; human monocytes, 15 min pretreatment, AEA061 1 μM, PMA 5 ng/ml): blunted | effect on NECA-mediated inhibition of TNF-α production ([4]; human monocytes, 15 min pretreatment, NECA 1 μM, PMA 5 ng/ml): reversed the NECA-mediated inhibition in a dose-dependent manner | PMA-stimulated TNF-α responsiveness in NECA- and AEA061-treated cells ([4]; human monocytes, ZM 241385 at 1 μM): restored

SMILES: CCNC(=O)[C@H]1O[C@@H](n2cnc3c(N)ncnc32)[C@H](O)[C@@H]1O [NECA, 5′-N-Ethylcarboxamidoadenosine]
effect on PMA-stimulated TNF-α production ([4]; human monocytes/macrophages, NECA 1 μM, PMA 5 ng/ml, 12 h): inhibited
